Test results: US9382197B2, “Substituted hydroxamic acids and uses thereof” (Millennium Pharmaceuticals, Inc., priority 2010, dated 2016)

Target: T1, purified human HDAC6 (Homo sapiens, UniProt Q9UBN7)
T1 construct: purchased BPS Bioscience 5006
T1 sequence (Q9UBN7 1-1215): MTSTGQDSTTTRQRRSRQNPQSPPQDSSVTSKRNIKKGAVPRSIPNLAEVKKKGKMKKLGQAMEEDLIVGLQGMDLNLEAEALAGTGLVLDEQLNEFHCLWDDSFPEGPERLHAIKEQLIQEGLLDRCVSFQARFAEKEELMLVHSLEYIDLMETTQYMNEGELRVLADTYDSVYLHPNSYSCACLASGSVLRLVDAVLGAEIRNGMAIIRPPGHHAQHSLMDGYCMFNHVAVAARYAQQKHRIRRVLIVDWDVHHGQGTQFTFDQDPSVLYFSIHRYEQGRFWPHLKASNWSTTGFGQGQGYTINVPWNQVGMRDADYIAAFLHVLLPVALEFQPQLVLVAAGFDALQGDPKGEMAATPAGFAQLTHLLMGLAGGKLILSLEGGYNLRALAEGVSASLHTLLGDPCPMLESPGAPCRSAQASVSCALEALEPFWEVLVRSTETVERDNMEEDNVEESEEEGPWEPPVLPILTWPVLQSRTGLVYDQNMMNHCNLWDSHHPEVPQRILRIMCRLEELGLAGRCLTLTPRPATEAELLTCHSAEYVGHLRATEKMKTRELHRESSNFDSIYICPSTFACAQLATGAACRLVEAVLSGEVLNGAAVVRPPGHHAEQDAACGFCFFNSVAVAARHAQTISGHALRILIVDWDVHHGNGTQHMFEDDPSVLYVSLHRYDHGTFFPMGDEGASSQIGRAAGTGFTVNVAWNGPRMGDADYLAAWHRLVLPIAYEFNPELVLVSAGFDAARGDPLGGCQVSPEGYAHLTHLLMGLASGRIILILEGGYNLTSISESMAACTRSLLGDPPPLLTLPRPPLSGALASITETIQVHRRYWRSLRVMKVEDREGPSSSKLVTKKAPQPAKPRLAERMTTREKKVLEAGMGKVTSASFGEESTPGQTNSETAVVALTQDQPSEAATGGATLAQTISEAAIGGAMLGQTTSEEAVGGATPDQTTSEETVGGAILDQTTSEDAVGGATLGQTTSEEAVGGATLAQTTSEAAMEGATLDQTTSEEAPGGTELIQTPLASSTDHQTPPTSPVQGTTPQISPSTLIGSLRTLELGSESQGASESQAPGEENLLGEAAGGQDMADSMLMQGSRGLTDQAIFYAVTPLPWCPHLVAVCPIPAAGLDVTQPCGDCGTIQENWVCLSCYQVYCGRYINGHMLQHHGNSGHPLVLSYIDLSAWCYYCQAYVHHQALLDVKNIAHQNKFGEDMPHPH
Test: HDAC6 Enzyme Assay
Format: biochemical
Description: To measure the inhibition of HDAC6 activity, purified human HDAC6 (BPS Bioscience; Cat. No. 5006) is incubated with substrate Ac-Arg-Gly-Lys(Ac)-AMC peptide (Bachem Biosciences; Cat. No. 1-1925) for 1 hour at 30° C. in the presence of test compounds or vehicle DMSO control. The reaction is stopped with the HDAC inhibitor trichostatin A (Sigma; Cat. No. T8552) and the amount of Arg-Gly-Lys-AMC generated is quantitated by digestion with trypsin (Sigma; Cat. No. T1426) and subsequent measurement of the amount of AMC released using a fluorescent plate reader (Pherastar; BMG Technologies) set at Ex 340 nm and Em 460 nm. Concentration response curves are generated by calculating the fluorescence increase in test compound-treated samples relative to DMSO-treated controls, and enzyme inhibition (IC50) values are determined from those curves.

[1] = purified human HDAC6, substrate Ac-Arg-Gly-Lys(Ac)-AMC, 1 hour at 30° C., reported as bins
[2] = bin: greater than 500 nM and less than 1 μM (lower bound in nM, upper bound in μM)

Cc1cc(C(=O)NC(C)c2cccc(C(=O)NO)c2)c(C)o1 (stereo not drawn) [Compound I-104, N-(1-{3-[(hydroxyamino)carbonyl]phenyl}ethyl)-2,5-dimethyl-3-furamide]
IC50 (bin: greater than 1 μM): > 1000 nM

CC(C)C(NC(=O)c1cc(F)c(F)cc1F)c1ccc(C(=O)NO)cc1 (stereo not drawn) [Compound I-116, 2,4,5-trifluoro-N-(1-{4-[(hydroxyamino)carbonyl]phenyl}-2-methylpropyl)benzamide]
IC50 [1]: < 100 nM

CC(NC(=O)C1CCCCC1)c1ccc(C(=O)NO)cc1 (stereo not drawn) [Compound I-208, 4-{1-[(cyclohexylcarbonyl)amino]ethyl}-N-hydroxybenzamide]
IC50 [1]: < 100 nM

CC(NC(=O)c1cc2cc(Cl)ccc2o1)c1cccc(C(=O)NO)c1 (stereo not drawn) [Compound I-226, 5-chloro-N-(1-{3-[(hydroxyamino)carbonyl]phenyl}ethyl)-1-benzofuran-2-carboxamide]
IC50 [1]: 100 to 500 nM

CCC[C@H](NC(=O)C(C)(C)C)c1ccc(C(=O)NO)cc1 [Compound I-536, 4-{(1S)-1-[(2,2-dimethylpropanoyl)amino]butyl}-N-hydroxybenzamide]
IC50 [2]: 500 to 1000 nM

CC(C)[C@H](NC(=O)C12CC3CC(CC(C3)C1)C2)c1ccc(C(=O)NO)cc1 [Compound I-157, N-((1S)-1-{4-[(hydroxyamino)carbonyl]phenyl}-2-methylpropyl)adamantane-1-carboxamide]
IC50 (bin: greater than 1 μM): > 1000 nM

Cc1cc(C)c(C(=O)NC(C)c2cccc(C(=O)NO)c2)[nH]1 (stereo not drawn) [Compound I-91, N-(1-{3-[(hydroxyamino)carbonyl]phenyl}ethyl)-3,5-dimethyl-1H-pyrrole-2-carboxamide]
IC50 [2]: 500 to 1000 nM

CCC[C@@H](NC(=O)NC(C)(C)C)c1ccc(C(=O)NO)cc1 [Compound I-380, 4-((1R)-1-{[(tert-butylamino)carbonyl]amino}butyl)-N-hydroxybenzamide]
IC50 [1]: 100 to 500 nM

C[C@@H](NC(=O)C1(C)CCCCC1)c1ccc(C(=O)NO)cc1 [Compound I-26, N-hydroxy-4-((1R)-1-{[(1-methylcyclohexyl)carbonyl]amino}ethyl)benzamide]
IC50 [1]: < 100 nM

C[C@@H](NC(=O)C1(C)CCCCC1)c1cccc(C(=O)NO)c1 [Compound I-283, N-hydroxy-3-((1R)-1-{[(1-methylcyclohexyl)carbonyl]amino}ethyl)benzamide]
IC50 (bin: greater than 1 μM): > 1000 nM

CC(C)C(NC(=O)c1cccn1C)c1ccc(C(=O)NO)cc1 (stereo not drawn) [Compound I-30, N-(1-{4-[(hydroxyamino)carbonyl]phenyl}-2-methylpropyl)-1-methyl-1H-pyrrole-2-carboxamide]
IC50 [1]: < 100 nM

CC(NC(=O)c1ccc(-n2cccc2)cc1)c1ccc(C(=O)NO)cc1 (stereo not drawn) [Compound I-63, N-(1-{4-[(hydroxyamino)carbonyl]phenyl}ethyl)-4-(1H-pyrrol-1-yl)benzamide]
IC50 [1]: < 100 nM

CC(C)(C)C(NC(=O)Cc1csc2ccc(Cl)cc12)c1ccc(C(=O)NO)cc1 (stereo not drawn) [Compound I-345, 4-(1-{[(5-chloro-1-benzothien-3-yl)acetyl]amino}-2,2-dimethylpropyl)-N-hydroxybenzamide]
IC50 (bin: greater than 1 μM): > 1000 nM

Cc1nn(C)cc1C(=O)NC(C)c1cccc(C(=O)NO)c1 (stereo not drawn) [Compound I-167, N-(1-{3-[(hydroxyamino)carbonyl]phenyl}ethyl)-1,3-dimethyl-1H-pyrazole-4-carboxamide]
IC50 (bin: greater than 1 μM): > 1000 nM

CCC[C@@H](NC(=O)C1(C)CCCCC1)c1ccc(C(=O)NO)cc1 [Compound I-387, N-hydroxy-4-((1R)-1-{[(1-methylcyclohexyl)carbonyl]amino}butyl)benzamide]
IC50 [1]: < 100 nM

CC(C)(C)NC(=O)N[C@H](c1ccc(C(=O)NO)cc1)C(F)(F)F [Compound I-290, 4-((1R)-1-{[(tert-butylamino)carbonyl]amino}-2,2,2-trifluoroethyl)-N-hydroxybenzamide]
IC50 [1]: 100 to 500 nM

Cc1nc(CC(=O)NC(C)c2ccc(C(=O)NO)cc2)c(C)s1 (stereo not drawn) [Compound I-217, 4-(1-{[(2,5-dimethyl-1,3-thiazol-4-yl)acetyl]amino}ethyl)-N-hydroxybenzamide]
IC50 (bin: greater than 1 μM): > 1000 nM

CC(NC(=O)c1cn2cc(Cl)ccc2n1)c1ccc(C(=O)NO)cc1 (stereo not drawn) [Compound I-35, 6-chloro-N-(1-{4-[(hydroxyamino)carbonyl]phenyl}ethyl)imidazo[1,2-a]pyridine-2-carboxamide]
IC50 [1]: < 100 nM

CC(C)(C)C(NC(=O)C12CC3CC(CC(C3)C1)C2)c1ccc(C(=O)NO)cc1 (stereo not drawn) [Compound I-162, N-(1-{4-[(hydroxyamino)carbonyl]phenyl}-2,2-dimethylpropyl)adamantane-1-carboxamide]
IC50 (bin: greater than 1 μM): > 1000 nM

CCc1ccc(NC(=O)NC(C)c2ccc(C(=O)NO)cc2)cc1 (stereo not drawn) [Compound I-381, 4-[1-({[(4-ethylphenyl)amino]carbonyl}amino)ethyl]-N-hydroxybenzamide]
IC50 [1]: < 100 nM

Cc1cc(C(=O)NC(C)c2ccc(C(=O)NO)cc2)n(C)n1 (stereo not drawn) [Compound I-288, N-(1-{4-[(hydroxyamino)carbonyl]phenyl}ethyl)-1,3-dimethyl-1H-pyrazole-5-carboxamide]
IC50 [1]: < 100 nM

CC(C)(C)C(NC(=O)c1cccs1)c1ccc(C(=O)NO)cc1 (stereo not drawn) [Compound I-215, N-(1-{4-[(hydroxyamino)carbonyl]phenyl}-2,2-dimethylpropyl)thiophene-2-carboxamide]
IC50 [1]: 100 to 500 nM

CC(C)Cc1cc(C(=O)NC(C)c2ccc(C(=O)NO)cc2)no1 (stereo not drawn) [Compound I-286, N-(1-{4-[(hydroxyamino)carbonyl]phenyl}ethyl)-5-isobutylisoxazole-3-carboxamide]
IC50 [1]: < 100 nM

CC(C)(C)CC(=O)NC(c1ccc(C(=O)NO)cc1)C(C)(C)C (stereo not drawn) [Compound I-396, 4-{1-[(3,3-dimethylbutanoyl)amino]-2,2-dimethylpropyl}-N-hydroxybenzamide]
IC50 (bin: greater than 1 μM): > 1000 nM

CC(NC(=O)CC1CCCC1)c1ccc(C(=O)NO)cc1 (stereo not drawn) [Compound I-370, 4-{1-[(cyclopentylacetyl)amino]ethyl}-N-hydroxybenzamide]
IC50 (bin: greater than 1 μM): > 1000 nM

CC(NC(=O)Nc1ccc(OC(F)(F)F)cc1)c1ccc(C(=O)NO)cc1 (stereo not drawn) [Compound I-141, N-hydroxy-4-{1-[({[4-(trifluoromethoxy)phenyl]amino}carbonyl)amino]ethyl}benzamide]
IC50 [1]: < 100 nM

C[C@H](NC(=O)c1cc2ccccc2n1C)c1cccc(C(=O)NO)c1 [Compound I-294, N-((1S)-1-{3-[(hydroxyamino)carbonyl]phenyl}ethyl)-1-methyl-1H-indole-2-carboxamide]
IC50 [1]: 100 to 500 nM

Cc1ccccc1S(=O)(=O)NC(C)c1ccc(C(=O)NO)cc1 (stereo not drawn) [Compound I-232, N-hydroxy-4-(1-{[(2-methylphenyl)sulfonyl]amino}ethyl)benzamide]
IC50 [1]: 100 to 500 nM

Cc1nc(C(=O)NC(C)c2cccc(C(=O)NO)c2)cs1 (stereo not drawn) [Compound I-29, N-(1-{3-[(hydroxyamino)carbonyl]phenyl}ethyl)-2-methyl-1,3-thiazole-4-carboxamide]
IC50 [2]: 500 to 1000 nM

Cc1cccc(NC(=O)NC(C)c2ccc(C(=O)NO)cc2)c1 (stereo not drawn) [Compound I-85, N-hydroxy-4-[1-({[(3-methylphenyl)amino]carbonyl}amino)ethyl]benzamide]
IC50 [1]: < 100 nM

Cc1noc(C)c1C(=O)NC(C)c1cccc(C(=O)NO)c1 (stereo not drawn) [Compound I-218, N-(1-{3-[(hydroxyamino)carbonyl]phenyl}ethyl)-3,5-dimethylisoxazole-4-carboxamide]
IC50 (bin: greater than 1 μM): > 1000 nM

CC(C)C(NC(=O)C12CC3CC(CC(C3)C1)C2)c1ccc(C(=O)NO)cc1 (stereo not drawn) [Compound I-58, N-(1-{4-[(hydroxyamino)carbonyl]phenyl}-2-methylpropyl)adamantane-1-carboxamide]
IC50 [1]: < 100 nM

CC(NC(=O)Nc1ccc(C#N)cc1)c1ccc(C(=O)NO)cc1 (stereo not drawn) [Compound I-236, 4-[1-({[(4-cyanophenyl)amino]carbonyl}amino)ethyl]-N-hydroxybenzamide]
IC50 [1]: < 100 nM
